Experimental data: patent US20260188423A1, “IDENTIFICATION OF CELL SURFACE ANTIGENS WHICH INDUCE T-CELL RESPONSES AND THEIR USES” (priority 2022, published 2026)
Where two headings read alike, the source gives them in different places.

What was measured:
[1] = test system: HeLa cells; assay: Cellular uptake of fluorescent-labeled peptide vaccines, flow cytometry; type: cell-based, human; conditions: for cells taking up the vaccine: 40 μM, within 30 minutes; for cellular uptake (intensity of fluorescence) compared to control: flow cytometry, control without R8
Experimental: (§1) Methods: HeLa cells were seeded at a density of 200,000 cells per well in 6-well plates and allowed to grow for one day. On the second day, the cells were treated with the peptides at three different concentrations (2.5 μM, 10 μM, and 40 μM) for two different incubation times (15 minutes and 30 minutes). After the treatment, the cells were detached using trypsin, washed, and resuspended in PBS. The cells were then analyzed using a FACS Canto flow cytometer. A total of 30,000 events were acquired, and the percentage of fluorescent cells and fluorescent intensity (geometric mean and median) were determined through flow analysis.
as §1, with “Methods” for “Methods:”

[2] = test system: CD8^+ T-cells; conditions: log-fold change, cited from earlier work
[3] = test system: peripheral mononuclear cells; assay: ELISPOT of T-cell responses to vaccine peptides after 1st immunization of the breast cancer patient; type: in vivo, human; conditions: after the 1st immunization; for ELISpot: 5 days culture of PBMC from the patient
Text: In the prior art, HLA-binding based epitope selection methods have been used for vaccine development. The epitopes in the personal vaccines made for the breast cancer patient were selected to bind at least 3 HLAs of the subject as described in the published US patent application 2018/264094. […] The potency of T-cell responses against the tumor antigens were predicted by the system described above (using HLA class I EWS, HLA class II EWS and overall EWS). The potency of T-cell responses to the vaccine peptides after the 1st immunization were measured with ELISPOT assay after 5 days culture of the peripheral mononuclear cells isolated from a blood sample of the patient (Spots/10^6 PBMC).

[4] = test system: antigen-specific T-cell clone; conditions: peptide pool, response attributed to the dominant epitope, cited from earlier work
[5] = test system: peritoneal tumour biopsies; assay: Transcriptome analysis of the Murcia patient's peritoneal tumour biopsies; conditions: target of 2nd generation personalized vaccines
Text: All the putative 8-20 amino acids long epitopes were created from these proteins and used for designing the 2nd generation of personalized vaccines according to the invention. […] These antigens have different length and amino acid sequences. All selected peptide antigen contains multiple highly ranked epitopes (13-66) presented on the cell surface by the patient's HLA class I and class II molecules. The range of the potency score is indicated for the selected epitopes. Epitopes presented by the patient's HLA class I and class II molecules are indicated to induce CD8 and CD4 responses, respectively. As described in the invention, the potency of each epitope in the vaccines was calculated and indicated to inform the physician about the predicted efficacy of the personalised vaccines in the recipient.

[6] = ABF cohort individual BC10, Healthy
[7] = ABF cohort individual AP0201, Hospitalized
[8] = Subject 1005699, cohort COVID-19-Acute
[9] = Subject 1327414, cohort Healthy

## Fluoresc-EEKEIIVIKDTEKKDQS-RRRRRRRR-SQFNVPMLY-NH2 (fluorescein-EEKEIIVIKDTEKKDQSRRRRRRRRSQFNVPMLY-NH2) [AKAP-4-specific Personalized Vaccine, AKAP-4-specific VERDI Vaccine]
[1]; HeLa cells
  cells taking up the vaccine: 45%
[1]
  cellular uptake (intensity of fluorescence) compared to control: significantly higher uptake

## AADLDDFSKQL [SARS-COV-2 peptide of the ABF cohort data]
[2]; [6]
  LFC: 0

## APISAMVRM [SARS-COV-2 peptide of the ABF cohort data]
[2]; [6]
  LFC: 0

## TLPPAWQPFLKDHRISTFKN [BIRC5 long-peptide personal vaccine of the breast cancer patient]
[3]
  ELISpot: 71 Spots/10^6 PBMC

## ALRKVPTDNY [SARS-COV-2 peptide of the ABF cohort data]
[2]; [6]
  LFC: 0

## SGSSYFVLANGHILPNSENA [FMRINB long-peptide personal vaccine of the breast cancer patient]
[3]
  ELISpot: 130 Spots/10^6 PBMC

## SVYADQVNIDYLMNRPQNLR [AKAP4 long-peptide personal vaccine of the breast cancer patient]
[3]
  ELISpot: 366 Spots/10^6 PBMC
[3]; breast cancer patient
  T cell responses (ELISPOT): 366 spots/million cells

## APKEIIFL [SARS-COV-2 peptide of the ABF cohort data]
[2]; [6]
  LFC: 0

## ALLADKFPVL [SARS-COV-2 peptide of the ABF cohort data]
[2]; [7]
  LFC: 0
[2]; [6]
  LFC: 0

## RLDQLLRHVMNPLETLSITN [PRAME long-peptide personal vaccine of the breast cancer patient]
[3]
  ELISpot: 66 Spots/10^6 PBMC

## Fluoresc-THVDIRTLEDLLMGTL-RRRRRRRR-RAHYNIVTF-NH2 (fluorescein-THVDIRTLEDLLMGTLRRRRRRRRRAHYNIVTF-NH2) [HPV-specific Personalized Vaccine, E7 (HPV16)-specific VERDI Vaccine]
[1]; HeLa cells
  more peptide accumulated in each cell compared to the control vaccines (median fluorescence intensity): approximately 30%
  cells taking up the vaccine: more than 50%
[1]; HeLa cells, listed as HPV-specific vaccine
  cells taking up the vaccine: 53%
[1]
  cellular uptake (intensity of fluorescence) compared to control: significantly higher uptake

## IELSLIDFYL
[4]; [8]
  Hits: 4

## NEQDLVREEAQKMSSLLPTM [SPAG9 long-peptide personal vaccine of the breast cancer patient]
[3]
  ELISpot: 0 Spots/10^6 PBMC

## ALQDAYYRA [SARS-COV-2 peptide of the ABF cohort data]
[2]; [6]
  LFC: 0

## AYILFTRFFYV
[4]; [8]
  Hits: 3
[4]; [9]
  Hits: 1

## ALNTLVKQL
[4]; [9]
  Hits: 1

## SDTKDYFMSKTLGIGRLKRP [FSIP1 long-peptide personal vaccine of the breast cancer patient]
[3]
  ELISpot: 257 Spots/10^6 PBMC

## FTSSRMSSFNRHMKTHTSEK [CTCFL long-peptide personal vaccine of the breast cancer patient]
[3]
  ELISpot: 48 Spots/10^6 PBMC

## FCNDPFLGVY
[4]; [8]
  Hits: 1

## ELIRQGTDY
[4]; [8]
  Hits: 2

## KEIIFLEGETL
[4]; [9]
  Hits: 1

## VASQSIIAY
[4]; [8]
  Hits: 23
[4]; [9]
  Hits: 4

## NVFAFPFTIY
[4]; [9]
  Hits: 19

## ALVYFLQSI [SARS-COV-2 peptide of the ABF cohort data]
[2]; [7]
  LFC: 0

## AIMTRCLAV
[4]; [9]
  Hits: 1

## BLTP2
[5]
  Relative expression: 95

## FAYANRNRF
[4]; [8]
  Hits: 1

## ADLDDFSKQL [SARS-COV-2 peptide of the ABF cohort data]
[2]; [7]
  LFC: 0

## AHAEETRKL [SARS-COV-2 peptide of the ABF cohort data]
[2]; [7]
  LFC: 0

## APFLYLYAL [SARS-COV-2 peptide of the ABF cohort data]
[2]; [7]
  LFC: 0

## ALLAVFQSA [SARS-COV-2 peptide of the ABF cohort data]
[2]; [6]
  LFC: 0

## FEYVSQPFL
[4]; [8]
  Hits: 1

## ALTCFSTQF [SARS-COV-2 peptide of the ABF cohort data]
[2]; [6]
  LFC: 0

## QEESFSPTAMDAIFGSLSDE [MAGEAA long-peptide personal vaccine of the breast cancer patient]
[3]
  ELISpot: 0 Spots/10^6 PBMC

## VVFLHVTYV
[4]; [8]
  Hits: 1
[4]; [9]
  Hits: 8

## AFPFTIYSL [SARS-COV-2 peptide of the ABF cohort data]
[2]; [7]
  LFC: 0

## APHGVVFL [SARS-COV-2 peptide of the ABF cohort data]
[2]; [7]
  LFC: 0

## ANPKTPKYKF [SARS-COV-2 peptide of the ABF cohort data]
[2]; [7]
  LFC: 0

## APHGVVFLHV [SARS-COV-2 peptide of the ABF cohort data]
[2]; [7]
  LFC: 0

## ITLATCELY
[4]; [8]
  Hits: 12
[4]; [9]
  Hits: 1

## WT1
[5]
  Relative expression: 59

## DLFMRIFTI
[4]; [8]
  Hits: 1

## SVLLFLAFV
[4]; [9]
  Hits: 5

## AMDEFIERY [SARS-COV-2 peptide of the ABF cohort data]
[2]; [6]
  LFC: 0

B1: SPAG9 (protein, UniProt O60271 1-1321, looked up)
C-Jun-amino-terminal …: MELEDGVVYQEEPGGSGAVMSERVSGLAGSIYREFERLIGRYDEEVVKELMPLVVAVLENLDSVFAQDQEHQVELELLRDDNEQLITQYEREKALRKHAEEKFIEFEDSQEQEKKDLQTRVESLESQTRQLELKAKNYADQISRLEEREAELKKEYNALHQRHTEMIHNYMEHLERTKLHQLSGSDQLESTAHSRIRKERPISLGIFPLPAGDGLLTPDAQKGGETPGSEQWKFQELSQPRSHTSLKVSNSPEPQKAVEQEDELSDVSQGGSKATTPASTANSDVATIPTDTPLKEENEGFVKVTDAPNKSEISKHIEVQVAQETRNVSTGSAENEEKSEVQAIIESTPELDMDKDLSGYKGSSTPTKGIENKAFDRNTESLFEELSSAGSGLIGDVDEGADLLGMGREVENLILENTQLLETKNALNIVKNDLIAKVDELTCEKDVLQGELEAVKQAKLKLEEKNRELEEELRKARAEAEDARQKAKDDDDSDIPTAQRKRFTRVEMARVLMERNQYKERLMELQEAVRWTEMIRASRENPAMQEKKRSSIWQFFSRLFSSSSNTTKKPEPPVNLKYNAPTSHVTPSVKKRSSTLSQLPGDKSKAFDFLSEETEASLASRREQKREQYRQVKAHVQKEDGRVQAFGWSLPQKYKQVTNGQGENKMKNLPVPVYLRPLDEKDTSMKLWCAVGVNLSGGKTRDGGSVVGASVFYKDVAGLDTEGSKQRSASQSSLDKLDQELKEQQKELKNQEELSSLVWICTSTHSATKVLIIDAVQPGNILDSFTVCNSHVLCIASVPGARETDYPAGEDLSESGQVDKASLCGSMTSNSSAETDSLLGGITVVGCSAEGVTGAATSPSTNGASPVMDKPPEMEAENSEVDENVPTAEEATEATEGNAGSAEDTVDISQTGVYTEHVFTDPLGVQIPEDLSPVYQSSNDSDAYKDQISVLPNEQDLVREEAQKMSSLLPTMWLGAQNGCLYVHSSVAQWRKCLHSIKLKDSILSIVHVKGIVLVALADGTLAIFHRGVDGQWDLSNYHLLDLGRPHHSIRCMTVVHDKVWCGYRNKIYVVQPKAMKIEKSFDAHPRKESQVRQLAWVGDGVWVSIRLDSTLRLYHAHTYQHLQDVDIEPYVSKMLGTGKLGFSFVRITALMVSCNRLWVGTGNGVIISIPLTETNKTSGVPGNRPGSVIRVYGDENSDKVTPGTFIPYCSMAHAQLCFHGHRDAVKFFVAVPGQVISPQSSSSGTDLTGDKAGPSAQEPGSQTPLKSMLVISGGEGYIDFRMGDEGGESELLGEDLPLEPSVTKAERSHLIVWQVMYGNE
[5]
  Relative expression: 70

B2: ODF2 (protein, UniProt Q5BJF6 1-829, looked up)
Outer dense fiber protein 2: MSASSSGGSPRFPSCGKNGVTSLTQKKVLRAPCGAPSVTVTKSHKRGMKGDTVNVRRSVRVKTKVPWMPPGKSSARPVGCKWENPPHCLEITPPSSEKLVSVMRLSDLSTEDDDSGHCKMNRYDKKIDSLMNAVGCLKSEVKMQKGERQMAKRFLEERKEELEEVAHELAETEHENTVLRHNIERMKEEKDFTILQKKHLQQEKECLMSKLVEAEMDGAAAAKQVMALKDTIGKLKTEKQMTCTDINTLTRQKELLLQKLSTFEETNRTLRDLLREQHCKEDSERLMEQQGALLKRLAEADSEKARLLLLLQDKDKEVEELLQEIQCEKAQAKTASELSKSMESMRGHLQAQLRSKEAENSRLCMQIKNLERSGNQHKAEVEAIMEQLKELKQKGDRDKESLKKAIRAQKERAEKSEEYAEQLHVQLADKDLYVAEALSTLESWRSRYNQVVKEKGDLELEIIVLNDRVTDLVNQQQTLEEKMREDRDSLVERLHRQTAEYSAFKLENERLKASFAPMEDKLNQAHLEVQQLKASVKNYEGMIDNYKSQVMKTRLEADEVAAQLERCDKENKILKDEMNKEIEAARRQFQSQLADLQQLPDILKITEAKLAECQDQLQGYERKNIDLTAIISDLRSRIEHQGDKLEMAREKHQASQKENKQLSLKVDELERKLEATSAQNIEFLQVIAKREEAIHQSQLRLEEKTRECGTLARQLESAIEDARRQVEQTKEHALSKERAAQNKILDLETQLSRTKTELSQLRRSRDDADRRYQSRLQDLKDRLEQSESTNRSMQNYVQFLKSSYANVFGDGPYSTFLTSSPIRSRSPPA
[5]
  Relative expression: 19
